From paper PMC5218480 (PLoS ONE, 2017)

Test system: MV-4-11 cells
Assay: Gene expression microarray analysis (Affymetrix PrimeView) and GSEA
Format: cell-based, human
Parameters: RFU PODN (11730768_x_at) / Fold change /veh PODN (11730768_x_at) / RFU LINC00158 (11744669_a_at) / Fold change /veh LINC00158 (11744669_a_at) / RFU DUSP10 (11751237_a_at) / Fold change /veh DUSP10 (11751237_a_at) / RFU ID3 (11757404_x_at) / Fold change /veh ID3 (11757404_x_at) / RFU PLEKHG5 (11737974_s_at) / Fold change /veh PLEKHG5 (11737974_s_at) / RFU LRRC4B (11730491_at) / Fold change /veh LRRC4B (11730491_at) / RFU GIMAP4 (11747438_a_at) / Fold change /veh GIMAP4 (11747438_a_at) / RFU KRT8 (11758183_x_at) / Fold change /veh KRT8 (11758183_x_at) / RFU CNN1 (11734310_a_at) / Fold change /veh CNN1 (11734310_a_at) / RFU VPS37D (11726825_at) / Fold change /veh VPS37D (11726825_at) / RFU C10orf10 (11716522_x_at) / Fold change /veh C10orf10 (11716522_x_at) / RFU KIR2DL2 /// KIR2DL4 /// KIR2DL5A /// KIR2DL5B /// KIR2DS1 /// KIR2DS2 /// KIR2DS3 /// KIR2DS4 /// KIR3DL3 /// KIR3DL3 /// KIR3DS1 (11738374_at) / Fold change /veh KIR2DL2 /// KIR2DL4 /// KIR2DL5A /// KIR2DL5B /// KIR2DS1 /// KIR2DS2 /// KIR2DS3 /// KIR2DS4 /// KIR3DL3 /// KIR3DL3 /// KIR3DS1 (11738374_at) / RFU C1QL1 (11718748_at) / Fold change /veh C1QL1 (11718748_at) / RFU TMPRSS4 (11747572_a_at) / Fold change /veh TMPRSS4 (11747572_a_at) / RFU HAMP (11756126_x_at) / Fold change /veh HAMP (11756126_x_at) / RFU RNFT2 (11725882_a_at) / Fold change /veh RNFT2 (11725882_a_at) / RFU NR4A2 (11747474_a_at) / Fold change /veh NR4A2 (11747474_a_at) / RFU ABCC12 (11746883_a_at) / Fold change /veh ABCC12 (11746883_a_at) / RFU TMEM136 (11760407_x_at) / Fold change /veh TMEM136 (11760407_x_at) / RFU CLDN22 /// WWC2 (11732394_at) / Fold change /veh CLDN22 /// WWC2 (11732394_at) / RFU HLA-DPB1 (11760878_x_at) / Fold change /veh HLA-DPB1 (11760878_x_at) / RFU SPINT1 (11716480_a_at) / Fold change /veh SPINT1 (11716480_a_at) / RFU GAP43 (11754022_s_at) / Fold change /veh GAP43 (11754022_s_at) / RFU A4GNT (11735810_at) / Fold change /veh A4GNT (11735810_at) / RFU PRB3 (11715151_x_at) / Fold change /veh PRB3 (11715151_x_at) / RFU TUBB4B (11761932_at) / Fold change /veh TUBB4B (11761932_at) / RFU CAPN14 (11732068_a_at) / Fold change /veh CAPN14 (11732068_a_at) / RFU TMCC2 (11721928_a_at) / Fold change /veh TMCC2 (11721928_a_at) / RFU IRGQ (11745062_a_at) / Fold change /veh IRGQ (11745062_a_at) / RFU FAM174B (11720279_a_at) / Fold change /veh FAM174B (11720279_a_at) / RFU TMPRSS4 (11748680_a_at) / Fold change /veh TMPRSS4 (11748680_a_at) / RFU FAM212B (11763350_a_at) / Fold change /veh FAM212B (11763350_a_at) / RFU PLEKHG5 (11743358_a_at) / Fold change /veh PLEKHG5 (11743358_a_at) / RFU ZSCAN30 (11745921_a_at) / Fold change /veh ZSCAN30 (11745921_a_at) / RFU CMKLR1 (11741424_a_at) / Fold change /veh CMKLR1 (11741424_a_at) / RFU LOC101060620 /// MAPK8IP1 (11723275_at) / Fold change /veh LOC101060620 /// MAPK8IP1 (11723275_at) / RFU SPTSSB (11747773_x_at) / Fold change /veh SPTSSB (11747773_x_at) / RFU PRSS12 (11739890_at) / Fold change /veh PRSS12 (11739890_at) / RFU BIN1 (11741810_x_at) / Fold change /veh BIN1 (11741810_x_at) / RFU WNT11 (11732464_a_at) / Fold change /veh WNT11 (11732464_a_at) / RFU C10orf10 (11716521_a_at) / Fold change /veh C10orf10 (11716521_a_at) / RFU C5orf56 (11738089_at) / Fold change /veh C5orf56 (11738089_at) / RFU CYB561 (11721691_x_at) / Fold change /veh CYB561 (11721691_x_at) / RFU ANKRD19P (11752326_a_at) / Fold change /veh ANKRD19P (11752326_a_at) / RFU OR2T12 /// OR2T33 /// OR2T8 (11738714_s_at) / Fold change /veh OR2T12 /// OR2T33 /// OR2T8 (11738714_s_at) / RFU VCAN (11748164_a_at) / Fold change /veh VCAN (11748164_a_at) / RFU JSRP1 (11732532_at) / Fold change /veh JSRP1 (11732532_at) / RFU KRTAP10-11 (11738290_x_at) / Fold change /veh KRTAP10-11 (11738290_x_at) / RFU MYO3A (11730013_a_at) / Fold change /veh MYO3A (11730013_a_at) / RFU EBF3 (11725865_a_at) / Fold change /veh EBF3 (11725865_a_at) / RFU CAMK2N1 (11719241_x_at) / Fold change /veh CAMK2N1 (11719241_x_at) / RFU C5orf56 (11738088_a_at) / Fold change /veh C5orf56 (11738088_a_at) / RFU OLFML3 (11715873_a_at) / Fold change /veh OLFML3 (11715873_a_at) / RFU LOC100653217 /// NTM (11731650_a_at) / Fold change /veh LOC100653217 /// NTM (11731650_a_at) / RFU MAPK11 (11762145_a_at) / Fold change /veh MAPK11 (11762145_a_at) / RFU FIZ1 (11724087_x_at) / Fold change /veh FIZ1 (11724087_x_at) / RFU OASL (11726364_x_at) / Fold change /veh OASL (11726364_x_at) / RFU SOX15 (11748057_x_at) / Fold change /veh SOX15 (11748057_x_at) / RFU CD79A (11719716_a_at) / Fold change /veh CD79A (11719716_a_at) / RFU HIST1H1D (11736915_at) / Fold change /veh HIST1H1D (11736915_at) / RFU CASKIN2 (11723855_a_at) / Fold change /veh CASKIN2 (11723855_a_at) / RFU LOC730098 (11760151_x_at) / Fold change /veh LOC730098 (11760151_x_at) / RFU OR4N2 (11742367_at) / Fold change /veh OR4N2 (11742367_at) / RFU PRRT2 (11749266_a_at) / Fold change /veh PRRT2 (11749266_a_at) / RFU SNX32 (11753110_a_at) / Fold change /veh SNX32 (11753110_a_at) / RFU CDHR5 (11726645_a_at) / Fold change /veh CDHR5 (11726645_a_at) / RFU RCAN1 (11760418_a_at) / Fold change /veh RCAN1 (11760418_a_at) / RFU FAM167A (11723789_a_at) / Fold change /veh FAM167A (11723789_a_at) / RFU FAM26E (11764081_at) / Fold change /veh FAM26E (11764081_at) / RFU ISYNA1 (11749810_s_at) / Fold change /veh ISYNA1 (11749810_s_at) / RFU ACY1 (11761880_at) / Fold change /veh ACY1 (11761880_at) / RFU 11764098_at / Fold change /veh 11764098_at / RFU SAMD14 (11745864_x_at) / Fold change /veh SAMD14 (11745864_x_at) / RFU NPB (11741838_a_at) / Fold change /veh NPB (11741838_a_at) / RFU TMPRSS6 (11731388_a_at) / Fold change /veh TMPRSS6 (11731388_a_at) / RFU KRTAP10-2 (11738614_at) / Fold change /veh KRTAP10-2 (11738614_at) / RFU ARHGAP8 /// PRR5-ARHGAP8 (11727945_x_at) / Fold change /veh ARHGAP8 /// PRR5-ARHGAP8 (11727945_x_at) / RFU KRTAP5-7 /// NADSYN1 (11734609_at) / Fold change /veh KRTAP5-7 /// NADSYN1 (11734609_at) / RFU RASL12 (11751679_a_at) / Fold change /veh RASL12 (11751679_a_at) / RFU CDKN2B (11736163_a_at) / Fold change /veh CDKN2B (11736163_a_at) / RFU PRF1 (11729649_at) / Fold change /veh PRF1 (11729649_at) / RFU, ZNF638 /// ZNF638-IT1 / Fold change vs veh, ZNF638 /// ZNF638-IT1 / RFU, PANK3 / Fold change vs veh, PANK3 / RFU, SH3YL1 / Fold change vs veh, SH3YL1 / RFU, ZEB2 / Fold change vs veh, ZEB2 / RFU, NRIP1 / Fold change vs veh, NRIP1 / RFU, PTTG1IP / Fold change vs veh, PTTG1IP / RFU, CAPN2 / Fold change vs veh, CAPN2 / RFU, MED14 / Fold change vs veh, MED14 / RFU, SNORA58 / Fold change vs veh, SNORA58 / RFU, C1orf63 / Fold change vs veh, C1orf63 / RFU, LRRFIP1 / Fold change vs veh, LRRFIP1 / RFU, NDUFAF7 / Fold change vs veh, NDUFAF7 / RFU, SLC12A2 / Fold change vs veh, SLC12A2 / RFU, IBTK / Fold change vs veh, IBTK / RFU, ESF1 / Fold change vs veh, ESF1 / Fold change vs veh, TMEM50B / RFU, TAOK1 / Fold change vs veh, TAOK1 / RFU, ACBD3 / Fold change vs veh, ACBD3 / RFU, TMA16 / Fold change vs veh, TMA16 / RFU, RWDD3 / Fold change vs veh, RWDD3 / RFU, BCAT1 / Fold change vs veh, BCAT1 / RFU, EDEM3 / Fold change vs veh, EDEM3 / RFU, TMEM33 / Fold change vs veh, TMEM33 / RFU, WDR75 / Fold change vs veh, WDR75 / RFU, AHCTF1 / Fold change vs veh, AHCTF1 / RFU, TFRC / Fold change vs veh, TFRC / RFU, ZDHHC17 / Fold change vs veh, ZDHHC17 / RFU, NOM1 / Fold change vs veh, NOM1 / RFU, ARL8B / Fold change vs veh, ARL8B / RFU, ZBTB11 / Fold change vs veh, ZBTB11 / RFU, TAMM41 / Fold change vs veh, TAMM41 / RFU, KIAA1704 /// LOC100996395 / Fold change vs veh, KIAA1704 /// LOC100996395 / RFU, ING1 / Fold change vs veh, ING1 / RFU, TRMT61B / Fold change vs veh, TRMT61B / RFU, FUBP3 / Fold change vs veh, FUBP3 / RFU, TP53 / Fold change vs veh, TP53 / RFU, TNKS2 / Fold change vs veh, TNKS2 / RFU, ZFP14 / Fold change vs veh, ZFP14 / RFU, ACTR2 / Fold change vs veh, ACTR2 / RFU, PPP3R1 / Fold change vs veh, PPP3R1 / RFU, PIK3R1 / Fold change vs veh, PIK3R1 / RFU, HNRNPA1 / Fold change vs veh, HNRNPA1 / RFU, RNF170 / Fold change vs veh, RNF170 / RFU, ZNF28 / Fold change vs veh, ZNF28 / RFU, RNGTT / Fold change vs veh, RNGTT / RFU, OGT / Fold change vs veh, OGT / RFU, BRD1 / Fold change vs veh, BRD1 / RFU, MARS / Fold change vs veh, MARS / RFU, ZNF655 / Fold change vs veh, ZNF655 / RFU, FAHD1 / Fold change vs veh, FAHD1 / RFU, BDP1 / Fold change vs veh, BDP1 / RFU, LRRCC1 / Fold change vs veh, LRRCC1 / RFU, ARID1A / Fold change vs veh, ARID1A / RFU, ZNF146 / Fold change vs veh, ZNF146 / RFU, ZNF330 / Fold change vs veh, ZNF330 / RFU, GPN3 / Fold change vs veh, GPN3 / RFU, C9orf123 / Fold change vs veh, C9orf123 / RFU, N4BP2L2 / Fold change vs veh, N4BP2L2 / RFU, ARFIP1 / Fold change vs veh, ARFIP1 / RFU, FAM179B / Fold change vs veh, FAM179B / RFU, BCL10 / Fold change vs veh, BCL10 / RFU, UHRF1BP1L / Fold change vs veh, UHRF1BP1L / RFU, BET1 / Fold change vs veh, BET1 / RFU, CNOT2 / Fold change vs veh, CNOT2 / RFU, ZNF268 / Fold change vs veh, ZNF268 / Fold change vs veh, ZNF507 / RFU, DGCR2 / Fold change vs veh, DGCR2 / RFU, WDSUB1 / Fold change vs veh, WDSUB1 / Fold change vs veh, HSP90B1 /// MIR3652 / RFU, ADSS / Fold change vs veh, ADSS / RFU, GK / Fold change vs veh, GK / RFU, ZNF148 / Fold change vs veh, ZNF148 / RFU, TAF9 / Fold change vs veh, TAF9 / RFU, SLC1A5 / Fold change vs veh, SLC1A5 / RFU, SLMO2 / Fold change vs veh, SLMO2 / RFU, ABCC4 / Fold change vs veh, ABCC4 / RFU, LOC101060439 /// RAP1B / Fold change vs veh, LOC101060439 /// RAP1B / RFU, RFX7 / Fold change vs veh, RFX7 / RFU, GTPBP10 / Fold change vs veh, GTPBP10 / RFU, CNEP1R1 / Fold change vs veh, CNEP1R1 / RFU, BIVM-ERCC5 /// ERCC5 / Fold change vs veh, BIVM-ERCC5 /// ERCC5 / RFU, ILF3 / Fold change vs veh, ILF3 / RFU 11762660_at / Fold change /veh 11762660_at / RFU VCAN (11757783_s_at) / Fold change /veh VCAN (11757783_s_at) / RFU DDX43 (11728927_at) / Fold change /veh DDX43 (11728927_at) / RFU KRT8 (11758188_x_at) / Fold change /veh KRT8 (11758188_x_at) / RFU NKD1 (11759106_at) / Fold change /veh NKD1 (11759106_at) / RFU SRD5A1 (11742802_a_at) / Fold change /veh SRD5A1 (11742802_a_at) / RFU TPSAB1 /// TPSB2 (11721975_s_at) / Fold change /veh TPSAB1 /// TPSB2 (11721975_s_at) / RFU GSTM3 (11746129_a_at) / Fold change /veh GSTM3 (11746129_a_at) / RFU IL23R (11737362_x_at) / Fold change /veh IL23R (11737362_x_at) / RFU TMEM51 (11727254_a_at) / Fold change /veh TMEM51 (11727254_a_at) / RFU PIWIL2 (11732686_x_at) / Fold change /veh PIWIL2 (11732686_x_at) / RFU ORM1 (11744905_x_at) / Fold change /veh ORM1 (11744905_x_at) / RFU CCDC152 (11743942_at) / Fold change /veh CCDC152 (11743942_at) / RFU ECM1 (11717891_a_at) / Fold change /veh ECM1 (11717891_a_at) / RFU IL23R (11748794_a_at) / Fold change /veh IL23R (11748794_a_at) / RFU TNFAIP8L3 (11732012_x_at) / Fold change /veh TNFAIP8L3 (11732012_x_at) / RFU MBOAT4 (11741988_at) / Fold change /veh MBOAT4 (11741988_at) / RFU 11764193_at / Fold change /veh 11764193_at / RFU TMEM53 (11763286_at) / Fold change /veh TMEM53 (11763286_at) / RFU MAGEB2 (11727129_at) / Fold change /veh MAGEB2 (11727129_at) / RFU TMEM200A (11744735_a_at) / Fold change /veh TMEM200A (11744735_a_at) / RFU CCDC152 (11751479_a_at) / Fold change /veh CCDC152 (11751479_a_at) / RFU FAM211A (11726209_a_at) / Fold change /veh FAM211A (11726209_a_at) / RFU RGS16 (11746705_a_at) / Fold change /veh RGS16 (11746705_a_at) / RFU VCAN (11755009_s_at) / Fold change /veh VCAN (11755009_s_at) / RFU RHOB (11743442_s_at) / Fold change /veh RHOB (11743442_s_at) / RFU RGS16 (11720943_a_at) / Fold change /veh RGS16 (11720943_a_at) / RFU RGS16 (11720944_at) / Fold change /veh RGS16 (11720944_at) / RFU, VPS4B / Fold change vs veh, VPS4B / RFU, CREB1 / Fold change vs veh, CREB1 / RFU, DNAJC13 / Fold change vs veh, DNAJC13 / RFU, GNAQ / Fold change vs veh, GNAQ / RFU, CDK5R1 / Fold change vs veh, CDK5R1 / RFU, ZRANB3 / Fold change vs veh, ZRANB3 / RFU, CUL4A / Fold change vs veh, CUL4A / RFU, CCNY / Fold change vs veh, CCNY / RFU, UFL1 / Fold change vs veh, UFL1 / RFU, COG3 / Fold change vs veh, COG3 / RFU, DIAPH2 / Fold change vs veh, DIAPH2 / RFU, SKA2 / Fold change vs veh, SKA2 / RFU, AFF3 / Fold change vs veh, AFF3 / RFU, LMF1 / Fold change vs veh, LMF1 / RFU, IPO11 / Fold change vs veh, IPO11 / RFU, DFFB / Fold change vs veh, DFFB / RFU, FOXP1 / Fold change vs veh, FOXP1 / RFU, CARD8 / Fold change vs veh, CARD8 / RFU, STRN3 / Fold change vs veh, STRN3 / RFU, ADK / Fold change vs veh, ADK / RFU, RASSF2 / Fold change vs veh, RASSF2 / RFU, WIPF1 / Fold change vs veh, WIPF1 / RFU, LARP1B / Fold change vs veh, LARP1B / RFU, RASA1 / Fold change vs veh, RASA1 / RFU, RB1 / Fold change vs veh, RB1 / RFU, PPFIA1 / Fold change vs veh, PPFIA1 / RFU, MAT2A / Fold change vs veh, MAT2A / RFU, CCT5 / Fold change vs veh, CCT5 / RFU, WDR92 / Fold change vs veh, WDR92 / RFU, CUX1 / Fold change vs veh, CUX1 / RFU, TTC7A / Fold change vs veh, TTC7A / RFU, TMEM135 / Fold change vs veh, TMEM135 / RFU, DEPTOR / Fold change vs veh, DEPTOR / RFU, CPM / Fold change vs veh, CPM / RFU, DNAJB6 / Fold change vs veh, DNAJB6 / RFU, CACNA2D3 / Fold change vs veh, CACNA2D3 / RFU, DTX4 / Fold change vs veh, DTX4 / RFU, TFCP2 / Fold change vs veh, TFCP2 / RFU, GMCL1 /// GMCL1P1 / Fold change vs veh, GMCL1 /// GMCL1P1 / RFU, AEBP2 / Fold change vs veh, AEBP2 / RFU, SNHG1 /// SNORD22 /// SNORD25 /// SNORD26 /// SNORD27 /// SNORD28 /// SNORD29 /// SNORD31 / Fold change vs veh, SNHG1 /// SNORD22 /// SNORD25 /// SNORD26 /// SNORD27 /// SNORD28 /// SNORD29 /// SNORD31 / Fold change (Aza/veh), C12orf56 (ProbeSet 11735607_a_at) / Fold change (ACY-1035/veh), C12orf56 (ProbeSet 11735607_a_at) / Fold change (Aza/veh), FGFR1OP (ProbeSet 11751329_s_at) / Fold change (ACY-1035/veh), FGFR1OP (ProbeSet 11751329_s_at) / Fold change (Aza/veh), VPS36 (ProbeSet 11739960_a_at) / Fold change (ACY-1035/veh), VPS36 (ProbeSet 11739960_a_at) / RFU SYPL1 (11715823_x_at) / Fold change /veh SYPL1 (11715823_x_at) / RFU IGFBP7 (11715501_s_at) / Fold change /veh IGFBP7 (11715501_s_at) / RFU REEP3 (11722064_at) / Fold change /veh REEP3 (11722064_at) / RFU IGLL1 (11728026_x_at) / Fold change /veh IGLL1 (11728026_x_at): dose or concentration left out as unconfirmed
Details: ProbeSet 11721521_at; LIST B

## Nc1ccc(-c2cccs2)cc1NC(=O)c1ccc2c(c1)cc(C1CC1)n2CCN1CCOCC1 [ACY-1035]
  Fold change vs veh, ZDHHC17: 0.90
